pIC50, pKd: −log10 of the molar value. Counter-ions that a name gives are not always drawn. Like-named read-outs stand apart in the source and are kept apart here.

Assay [1] concerns the target human RORγt ligand binding domain (RORγt LBD) (Homo sapiens (Human), UniProt P51449). In words: RORγt ThermoFluor® assay (thermal shift binding). In outline:
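Thermal shift with 0.065 mg/mL RORγt LBD and 60 μM 1,8-ANS in 100 mM Hepes pH 7.0, 10 mM NaCl, 2.5 mM GSH, 0.002% Tween-20.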

The target in assay [2] is full-length human RORγt (Homo sapiens (Human), UniProt P51449). In words: RORγt (full-length human) reporter assay, conditions A or B, HEK293T cells. The note with it: for inhibition at 3 µM: 3 μM compound concentration (footnote *); for pIC50: RORγt (FL) Reporter Assay A or B, IC50, HEK293T cells; for inhibition at 6 µM: read-out: RORγt (FL) Reporter Assay A or B, % inhibition @ 6 μM. Format: cell-based. In outline: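 After 16–20 h, dual firefly/Renilla luciferase luminescence was read. Firefly signal was normalized to DMSO and saturating reference compound, then to Renilla, and fitted for IC50; % inhibition is versus DMSO.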

Setting [3] is: HEK-293T, read-out: RORγt (FL) Reporter Assay A or B, % inhibition.
The mark [4] stands for this setting: read-out: ThermoFluor® Assay, Kd.
[5] abbreviates: HEK-293T, 2 μM compound concentration, read-out: RORγt (FL) Reporter Assay A or B, % inhibition.

Sequence of human RORγt ligand binding domain (RORγt LBD) (P51449 other isoform, or with tags, fused parts or gaps): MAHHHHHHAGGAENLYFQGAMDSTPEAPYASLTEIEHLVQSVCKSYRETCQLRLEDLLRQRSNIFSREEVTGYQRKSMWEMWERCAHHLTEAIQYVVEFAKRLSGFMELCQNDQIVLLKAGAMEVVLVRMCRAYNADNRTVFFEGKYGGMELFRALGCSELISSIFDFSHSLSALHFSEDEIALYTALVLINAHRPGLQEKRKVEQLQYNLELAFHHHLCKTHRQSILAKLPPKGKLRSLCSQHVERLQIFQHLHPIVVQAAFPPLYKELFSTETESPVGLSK
Sequence of full-length human RORγt (P51449 other isoform, or with tags, fused parts or gaps): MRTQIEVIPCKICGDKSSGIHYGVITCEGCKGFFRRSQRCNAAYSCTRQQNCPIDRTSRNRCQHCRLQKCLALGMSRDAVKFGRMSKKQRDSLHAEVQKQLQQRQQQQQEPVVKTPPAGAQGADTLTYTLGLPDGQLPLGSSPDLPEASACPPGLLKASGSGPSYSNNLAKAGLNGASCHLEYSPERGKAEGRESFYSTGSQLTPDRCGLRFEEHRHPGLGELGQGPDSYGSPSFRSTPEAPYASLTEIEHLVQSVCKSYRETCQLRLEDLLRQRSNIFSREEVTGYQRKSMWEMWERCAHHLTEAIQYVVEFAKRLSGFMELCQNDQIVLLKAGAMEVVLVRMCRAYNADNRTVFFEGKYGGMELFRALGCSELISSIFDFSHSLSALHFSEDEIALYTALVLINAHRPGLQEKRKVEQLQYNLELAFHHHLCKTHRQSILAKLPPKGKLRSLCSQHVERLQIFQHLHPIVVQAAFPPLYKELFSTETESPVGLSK

The pKd is the Kd on a negative log10 scale, so that one unit is a factor of ten. The inhibition is the change of the read-out against control, counted positive when it falls. What is called pIC50 is the IC50 on a negative log10 scale, so that one unit is a factor of ten. As for `CCn1nc(C(=O)NC[C@]2(O)CC[C@@H](S(C)(=O)=O)C[C@H]2N)c(Cl)c1-c1ccc(CC(C)(C)C(F)(F)F)cc1OC(F)F` (stereo in doubt) [Example 5, N-(((1RS,2RS,4RS)-2-Amino-1-hydroxy-4-(methylsulfonyl)cyclohexyl)methyl)-4-chloro-5-(2-(difluoromethoxy)-4-(3,3,3-trifluoro-2,2-dimethylpropyl)phenyl)-1-ethyl-1H-pyrazole-3-carboxamide Hydrobromide], the pKd in assay [1] (ThermoFluor® Assay, Kd) is 8.77. Also, the inhibition at 3 µM in assay [2] (setting [3]) was determined as 103%. For the same compound, the pIC50 in assay [2] is 6.92.
Take `CCCn1nc(C(=O)NC[C@H]2CC[C@H](S(C)(=O)=O)CC2)c(Cl)c1-c1ccc(N[C@H](C)C(F)(F)F)cc1OC` [Example 30, 4-Chloro-5-(2-methoxy-4-(((R)-1,1,1-trifluoropropan-2-yl)amino)phenyl)-N-(((1r,4R)-4-(methylsulfonyl)cyclohexyl)methyl)-1-propyl-1H-pyrazole-3-carboxamide]: the pKd in assay [1] (setting [4]) was 8.68. Also, in assay [2] (setting [5]), the inhibition at 2 µM is 104%. In assay [2], this compound showed a negative logarithm of the IC50 (pIC50) of 7.57.
As for `CCn1nc(C(=O)NC[C@H]2CC[C@H](S(C)(=O)=O)CC2)c(Cl)c1-c1ccc(CCC(F)(F)F)cc1Cl` [Example 174, 4-Chloro-5-(2-chloro-4-(3,3,3-trifluoropropyl)phenyl)-1-ethyl-N-(((1r,4r)-4-(methylsulfonyl)cyclohexyl)methyl)-1H-pyrazole-3-carboxamide], the pKd in assay [1] (setting [4]) was 8.23. Further, the inhibition at 0.67 µM in assay [2] (setting [3]) worked out at 40%. In assay [2], this compound showed a pIC50 of 7.42.
As for `Cc1c(C(=O)NC[C@]2(O)CC[C@@H](S(C)(=O)=O)CC2)nn(C)c1-c1ccc(CC(C)(C)C(F)(F)F)cc1OC(F)F` [Example 157, 5-(2-(Difluoromethoxy)-4-(3,3,3-trifluoro-2,2-dimethylpropyl)phenyl)-N-(((1s,4s)-1-hydroxy-4-(methylsulfonyl)cyclohexyl)methyl)-1,4-dimethyl-1H-pyrazole-3-carboxamide], the negative logarithm of the Kd (pKd) in assay [1] (setting [4]) was 9.10. Also, the inhibition at 0.3 µM in assay [2] (setting [3]) came out at 101%. In assay [2], this compound gave a pIC50 of 7.89.
On to `CCn1nc(C(=O)NC[C@]2(O)CC[C@@H](S(C)(=O)=O)CC2)c(Cl)c1-c1ccc(CCC(F)(F)F)cc1OC` [Example 39, 4-Chloro-1-ethyl-N-(((1s,4s)-1-hydroxy-4-(methylsulfonyl)cyclohexyl)methyl)-5-(2-methoxy-4-(3,3,3-trifluoropropyl)phenyl)-1H-pyrazole-3-carboxamide], for which, in assay [1] (setting [4]), the pKd is 8.00. Further, the inhibition at 6 µM in assay [2] (HEK-293T, 6 μM compound concentration) was 85%. The pIC50 in assay [2] is 7.42.
Regarding `CCn1nc(C(=O)NC[C@H]2CC[C@@H](S(C)(=O)=O)CN2)c(Cl)c1-c1ccc(CC(C)(C)C(F)(F)F)cc1OC(F)F` (stereo in doubt) [Example 11, 4-Chloro-5-(2-(difluoromethoxy)-4-(3,3,3-trifluoro-2,2-dimethylpropyl)phenyl)-1-ethyl-N-(((2RS,5RS)-5-(methylsulfonyl)piperidin-2-yl)methyl)-1H-pyrazole-3-carboxamide Hydrobromide], the negative logarithm of the Kd (pKd) in assay [1] (ThermoFluor® Assay, Kd) is 7.46. The inhibition at 3 µM in assay [2] (setting [3]) was found to be 100%. The pIC50 in assay [2] is 6.72.
As for `CCCn1nc(C(=O)NC[C@H]2CC[C@H](S(C)(=O)=O)CC2)c(Cl)c1-c1ccc(C[C@H](C)C(F)(F)F)cc1OC` (single isomer, unassigned) [Example 41, 4-Chloro-5-(2-methoxy-4-((S*)-3,3,3-trifluoro-2-methylpropyl)phenyl)-N-(((1r,4S)-4-(methylsulfonyl)cyclohexyl)methyl)-1-propyl-1H-pyrazole-3-carboxamide], in assay [1] (ThermoFluor® Assay, Kd), the pKd is 9.55. In addition, the inhibition at 0.67 µM in assay [2] (HEK-293T, 0.67 μM compound concentration (footnote ****), read-out: RORγt (FL) Reporter Assay A or B, % inhibition) was 98%. In addition, the pIC50 in assay [2] was 8.10.
`CCn1nc(C(=O)NC[C@@]2(O)CC[C@H](S(C)(=O)=O)C[C@@H]2O)c(C)c1-c1ccc(C[C@@H](C)C(F)(F)F)cc1OC(F)F` (stereo in doubt) [Example 141, 5-(2-(Difluoromethoxy)-4-((R*)-3,3,3-trifluoro-2-methylpropyl)phenyl)-N-(((1S*,2S*,4S*)-1,2-dihydroxy-4-(methylsulfonyl)cyclohexyl)methyl)-1-ethyl-4-methyl-1H-pyrazole-3-carboxamide]: the pKd in assay [1] (ThermoFluor® Assay, Kd) is 8.24. In addition, the inhibition at 3 µM in assay [2] (setting [3]) was 84%. The compound also gave a pIC50 in assay [2] of 7.07.
Turning to `CCCn1nc(C(=O)NC[C@]2(O)CC[C@@H](S(C)(=O)=O)CC2)c(Cl)c1-c1ccc(N[C@H](C)C(F)(F)F)cc1OC` [Example 31, 4-Chloro-N-(((1s,4S)-1-hydroxy-4-(methylsulfonyl)cyclohexyl)methyl)-5-(2-methoxy-4-(((R)-1,1,1-trifluoropropan-2-yl)amino)phenyl)-1-propyl-1H-pyrazole-3-carboxamide], in assay [1] (setting [4]), the negative logarithm of the Kd (pKd) is 8.14. For the same compound, in assay [2] (HEK-293T), the inhibition at 6 µM was 105%. Moreover, the pIC50 in assay [2] was 7.39.
As for `CCn1nc(C(=O)NC[C@H]2CC[C@H](S(C)(=O)=O)CC2)c(Cl)c1-c1ccc(OCCC(F)(F)F)cc1OC` [Example 213, 4-Chloro-1-ethyl-5-(2-methoxy-4-(3,3,3-trifluoropropoxy)phenyl)-N-(((1r,4r)-4-(methylsulfonyl)cyclohexyl)methyl)-1H-pyrazole-3-carboxamide], in assay [1] (setting [4]), the negative logarithm of the Kd (pKd) is 7.47. Also, the inhibition at 2 µM in assay [2] (setting [5]) came out at 77%. In assay [2], this compound had a pIC50 of 7.11.
With `CCS(=O)(=O)[C@H]1CC[C@H](CNC(=O)c2nn(C)c(-c3ccc(CC(C)(C)C(F)(F)F)cc3OC(F)F)c2Cl)CC1` [Example 156, 4-Chloro-5-(2-(difluoromethoxy)-4-(3,3,3-trifluoro-2,2-dimethylpropyl)phenyl)-N-(((1r,4r)-4-(ethylsulfonyl)cyclohexyl)methyl)-1-methyl-1H-pyrazole-3-carboxamide], the pKd in assay [1] (setting [4]) was 8.82. Moreover, the inhibition at […] in assay [2] (HEK-293T, 0.33 μM compound concentration (footnote *****), read-out: RORγt (FL) Reporter Assay A or B, % inhibition) came to 89%. In assay [2], this compound gave a pIC50 of 7.70.
Turning to `CCOC(=O)[C@]1(CNC(=O)c2nn(CC)c(-c3ccc(CC(C)(C)C(F)(F)F)cc3OC(F)F)c2Cl)CC[C@@H](S(C)(=O)=O)CC1` [Example 120, Ethyl (1r*,4r*)-1-((4-chloro-5-(2-(difluoromethoxy)-4-(3,3,3-trifluoro-2,2-dimethylpropyl)phenyl)-1-ethyl-1H-pyrazole-3-carboxamido)methyl)-4-(methylsulfonyl)cyclohexane-1-carboxylate], the pKd in assay [1] (ThermoFluor® Assay, Kd) was 8.00. Besides, the inhibition at […] in assay [2] (HEK-293T, 0.22 μM compound concentration (footnote *******), read-out: RORγt (FL) Reporter Assay A or B, % inhibition) amounted to 92%. Also, the pIC50 in assay [2] is 7.55.
In the case of `Cn1nc(C(=O)NC[C@H]2CC[C@H](S(C)(=O)=O)CC2)c(Cl)c1-c1ccc(CC(C)(C)C(F)(F)F)cc1OC(F)F` [Example 155, 4-Chloro-5-(2-(difluoromethoxy)-4-(3,3,3-trifluoro-2,2-dimethylpropyl)phenyl)-1-methyl-N-(((1r,4r)-4-(methylsulfonyl)cyclohexyl)methyl)-1H-pyrazole-3-carboxamide], the pKd in assay [1] (setting [4]) was 9.48. In assay [2], the pIC50 was 8.38.
In the case of `CCOc1cc(N[C@H](C)C(F)(F)F)ccc1-c1c(Cl)c(C(=O)NC[C@H]2CC[C@H](S(C)(=O)=O)CC2)nn1CC` [Example 205, 4-Chloro-5-(2-ethoxy-4-(((R)-1,1,1-trifluoropropan-2-yl)amino)phenyl)-1-ethyl-N-(((1r,4R)-4-(methylsulfonyl)cyclohexyl)methyl)-1H-pyrazole-3-carboxamide], the pKd in assay [1] (setting [4]) is 8.27. Besides, the inhibition at 2 µM in assay [2] (setting [3]) turned out to be 104%. The compound further showed a pIC50 in assay [2] of 7.54.
Regarding `CCn1nc(C(=O)NC[C@H]2CC[C@H](S(C)(=O)=O)CC2)c(Cl)c1-c1ccc(OCC(C)(F)F)cc1OC` [Example 214, 4-Chloro-5-(4-(2,2-difluoropropoxy)-2-methoxyphenyl)-1-ethyl-N-(((1r,4r)-4-(methylsulfonyl)cyclohexyl)methyl)-1H-pyrazole-3-carboxamide], in assay [1] (setting [4]), the pKd was 7.41. The inhibition at 2 µM in assay [2] (setting [5]) is 79%. In addition, in assay [2], the pIC50 is 7.08.
With `CCn1nc(C(=O)NC[C@@]2(O)CC[C@H](S(C)(=O)=O)C[C@@H]2N)c(Cl)c1-c1ccc(CC(C)(C)C(F)(F)F)cc1OC(F)F` (stereo in doubt) [Example 7, N-(((1S*,2S*,4S*)-2-Amino-1-hydroxy-4-(methylsulfonyl)cyclohexyl)methyl)-4-chloro-5-(2-(difluoromethoxy)-4-(3,3,3-trifluoro-2,2-dimethylpropyl)phenyl)-1-ethyl-1H-pyrazole-3-carboxamide hydrobromide], in assay [1] (ThermoFluor® Assay, Kd), the negative logarithm of the Kd (pKd) is 8.68. In addition, in assay [2] (HEK-293T, 1 μM compound concentration (footnote ***), read-out: RORγt (FL) Reporter Assay A or B, % inhibition), the inhibition at 1 µM was 103%. In assay [2], this compound showed a pIC50 of 7.17.
`COc1cc(N[C@H](C)C(F)(F)F)ccc1-c1c(Cl)c(C(=O)NC[C@]2(O)CC[C@@H](S(C)(=O)=O)CC2)nn1CC(C)C` [Example 29, 4-Chloro-N-(((1s,4S)-1-hydroxy-4-(methylsulfonyl)cyclohexyl)methyl)-1-isobutyl-5-(2-methoxy-4-(((R)-1,1,1-trifluoropropan-2-yl)amino)phenyl)-1H-pyrazole-3-carboxamide]: in assay [1] (setting [4]), the negative-log Kd (pKd) is 8.08. Further, the inhibition at 6 µM in assay [2] (HEK-293T) came out at 108%. This compound also gave a pIC50 in assay [2] of 7.21.

Source of the values: patent publication US10975037B2 (priority 2018, dated 2021).
